Laboratory results taken from ChEMBL document CHEMBL6074673, “Discovery of UCB9386: A Potent, Selective, and Brain-Penetrant Nuak1 Inhibitor Suitable for In Vivo Pharmacological Studies” (J Med Chem, 2024).
In brackets after ≈: the same amount, converted by molar mass.

How the values were obtained:
[1] = in vitro; conditions: human, Caco-2
Description: Apparent permeability in human Caco-2 cells

[2] = Metabolic stability in mouse liver microsomes assessed as intrinsic clearance; assay type: ADME, Microsome
[3] = human, microsomes
[4] = Dissociation constant, pKa of compound; assay type: physicochemical
[5] = physchem; conditions: buffer, pH 7.4
Description: Thermodynamic solubility of compound at pH 7.4

[6] = in vivo; conditions: mouse, brain, 0.5 mg/kg
Description: Ratio of unbound drug concentration in brain to plasma of mouse at 0.5 mg/kg

[7] = physchem; conditions: buffer, pH 7.4; remark: listed apart in the source
Description: Photostability of compound at pH 7.4 under ambient light assessed as compound remaining at 250 uM measured after 24 hrs by 2 LC-MS analysis

[8] = in vitro; conditions: mouse, hepatocytes
Description: Metabolic stability in mouse hepatocytes assessed as intrinsic clearance measured per million cells

[9] = in vitro; conditions: human, hepatocytes
Description: Metabolic stability in human hepatocytes assessed as intrinsic clearance measured per million cells

Row | Papp [1] | CLH [2] | CLH [3] | pKa [4] | solubility thermodynamic [5] | Kp uu [6] | remaining at 24 h, 250 µM [7] | hepatocyte CLint [8] | hepatocyte CLint [9] | Compound
1 | 8.6 ×10⁻⁶ cm/s | 3 mL/min/g | 16 mL/min/g | 8.8 |  |  |  |  |  | O=c1c(N2C[C@H]3C[C@@H]2CN3)nc2cnc(-c3cnc4cccnn34)cc2n1Cc1ccccc1
2 | 23.6 ×10⁻⁶ cm/s | 227 mL/min/g | 73 mL/min/g | 7.6 | < 1 µM |  |  |  |  | CN1CCN(c2nc3cnc(-c4cnc5cccnn45)cc3n(Cc3ccccc3)c2=O)CC1
3 | 13.2 ×10⁻⁶ cm/s | 10 mL/min/g | 22 mL/min/g | 8.7 | 2 µM (≈ 0.901 µg/mL) | 0.07 |  |  |  | O=c1c(N2CC3CC(C2)N3)nc2cnc(-c3cnc4cccnn34)cc2n1Cc1ccccc1
4 | 24.4 ×10⁻⁶ cm/s |  | 34 mL/min/g |  |  |  | > 97% |  |  | O=c1cnc2cnc(-c3cnc4cccnn34)cc2n1Cc1ccccc1
5 | 10.7 ×10⁻⁶ cm/s | 32 mL/min/g | 42 mL/min/g | 8.5 | < 1 µM |  |  |  |  | O=c1c(N2CCNCC2)nc2cnc(-c3cnc4cccnn34)cc2n1Cc1ccccc1
6 | 12.5 ×10⁻⁶ cm/s | 58 mL/min/g | 83 mL/min/g | 8.4 | 456 µM (≈ 212 µg/mL) | 0.5 |  |  |  | CN1C[C@H]2C[C@@H]1CN2c1nc2cnc(-c3cnc4cccnn34)cc2n(Cc2ccccc2)c1=O
7 |  | 52 mL/min/g | 29 mL/min/g |  |  |  |  |  |  | O=c1c(N2CCOCC2)nc2cnc(-c3cnc4cccnn34)cc2n1Cc1ccccc1
8 | 13.9 ×10⁻⁶ cm/s | 11 mL/min/g | 4 mL/min/g |  |  |  |  |  |  | O=c1c(C(F)F)nc2cnc(-c3cnc4cccnn34)cc2n1Cc1ccccc1
9 |  | 226 mL/min/g | 63 mL/min/g |  |  |  |  |  |  | O=c1c(N2CCC2)nc2cnc(-c3cnc4cccnn34)cc2n1Cc1ccccc1
10 | 8.3 ×10⁻⁶ cm/s |  | 21 mL/min/g |  | 356 µM (≈ 165 µg/mL) | 0.026 |  | 6 µL/min/1e6 cells | 9 µL/min/1e6 cells | C[C@H](c1ccccc1)n1c(=O)c(N2CC3CC(C2)N3)nc2cnc(-c3cnc4cccnn34)cc21
11 |  |  |  |  |  |  | 39% |  |  | CC1Oc2ccc(-c3cnc4ccccn34)nc2N(Cc2ccccc2)C1=O (stereo not drawn)
